Where a SMILES comes first, the peptide text is derived from it.
Columns and labels:
[1] = target: HLA A*3201 (Homo sapiens, UniProt P04439, A270S/D101S/D185E/E176V/E277Q/F133L/G103R/G107R/G231S/H175R/I121M/I218V/I322F/K168Q/L105A/L300P/L318F/M331R/P208A/P217A/Q94H/R106L/R138Q/S129P/T104I/T323A/T345S/V100E/V321M/V358M); test: biochemical; format: binding
[2] = target: HLA B*1503 (Homo sapiens, UniProt P01889, A329T/A93T/A95T/C349S/D201E/D98Y/E187L/E204Q/K202T/N87E/Q94N/R155S/R180L/S121R/S35A/V306I/V36M/Y140S/Y91S); test: biochemical; format: binding

| Compound | IC50 [1] | IC50 [2] |
| --- | --- | --- |
| CC[C@H](C)[C@H](NC(=O)[C@H](CO)NC(=O)[C@H](CCSC)NC(=O)[C@H](CC(C)C)NC(=O)[C@@H](N)CCCNC(=N)N)C(=O)N[C@@H](CC(N)=O)C(=O)N[C@@H](CCCNC(=N)N)C(=O)NCC(=O)N[C@@H](Cc1ccccc1)C(=O)O [3102.0465] (H-RLMSINRGF-OH) | 3 nM |  |
| CC[C@H](C)[C@H](NC(=O)[C@H](Cc1ccc(O)cc1)NC(=O)[C@@H](NC(=O)[C@@H](NC(=O)[C@@H](NC(=O)[C@H](CCSC)NC(=O)[C@@H](NC(=O)[C@@H](N)CCCCN)[C@@H](C)O)[C@@H](C)O)[C@@H](C)O)C(C)C)C(=O)N[C@@H](CC(C)C)C(=O)O [3102.0466] (H-KTMTTVYIL-OH) | 14 nM |  |
| CC[C@H](C)[C@H](NC(=O)[C@@H]1CCCN1C(=O)[C@H](Cc1c[nH]cn1)NC(=O)[C@H](CC(N)=O)NC(=O)[C@@H](NC(=O)[C@H](CC(=O)O)NC(=O)[C@H](CCSC)NC(=O)[C@@H](NC(=O)[C@@H](N)CO)[C@@H](C)O)C(C)C)C(=O)O [3102.0467] (H-STMDVNHPI-OH) | 7.4 nM |  |
| CC(C)C[C@H](NC(=O)[C@H](CO)NC(=O)[C@H](CC(C)C)NC(=O)[C@@H](NC(=O)[C@H](CC(C)C)NC(=O)[C@H](Cc1c[nH]cn1)NC(=O)[C@H](CC(N)=O)NC(=O)[C@H](CC(C)C)NC(=O)[C@H](C)N)C(C)C)C(=O)O [3102.0469] (H-ALNHLVLSL-OH) | 41 nM |  |
| CC[C@H](C)[C@H](NC(=O)[C@H](CCC(=O)O)NC(=O)[C@@H](NC(=O)[C@@H](NC(=O)[C@H](CCC(=O)O)NC(=O)[C@H](CC(N)=O)NC(=O)[C@@H](NC(=O)[C@@H](N)CCCCN)[C@@H](C)CC)C(C)C)C(C)C)C(=O)N[C@@H](Cc1ccccc1)C(=O)O [3102.0471] (H-KINEVVEIF-OH) | 19 nM |  |
| CC[C@H](C)[C@H](NC(=O)[C@@H](NC(=O)[C@@H](N)CCCCN)[C@@H](C)O)C(=O)N[C@@H](CC(N)=O)C(=O)N[C@@H](Cc1ccc(O)cc1)C(=O)N[C@@H](CO)C(=O)N[C@@H](Cc1ccccc1)C(=O)N[C@@H](Cc1ccccc1)C(=O)N[C@@H](CC(C)C)C(=O)O [3102.0472] (H-KTINYSFFL-OH) | 1 nM |  |
| CC[C@H](C)[C@H](NC(=O)[C@H](CO)NC(=O)[C@H](CC(C)C)NC(=O)[C@@H](NC(=O)[C@H](CO)NC(=O)[C@H](C)NC(=O)[C@H](CC(C)C)NC(=O)[C@@H](NC(=O)[C@@H](N)CCC(N)=O)[C@@H](C)CC)[C@@H](C)CC)C(=O)O [3102.0474] (H-QILASILSI-OH) | 22 nM |  |
| CC[C@H](C)[C@H](NC(=O)CNC(=O)[C@H](CC(C)C)NC(=O)[C@@H](NC(=O)[C@H](CC(C)C)NC(=O)[C@H](Cc1ccc(O)cc1)NC(=O)[C@H](CCSC)NC(=O)[C@@H](NC(=O)[C@@H](N)CCSC)[C@@H](C)CC)C(C)C)C(=O)O [3102.0477] (H-MIMYLVLGI-OH) | 98 nM |  |
| CC[C@H](C)[C@H](NC(=O)[C@@H](N)CCCCN)C(=O)N[C@@H](CC(N)=O)C(=O)N[C@@H](CCSC)C(=O)N[C@@H](CCC(N)=O)C(=O)N[C@H](C(=O)N[C@@H](CC(C)C)C(=O)N[C@@H](CC(C)C)C(=O)N[C@@H](Cc1ccccc1)C(=O)O)[C@@H](C)O [3102.0488] (H-KINMQTLLF-OH) | 10 nM |  |
| CC[C@H](C)[C@H](NC(=O)[C@H](CC(N)=O)NC(=O)[C@H](Cc1ccccc1)NC(=O)[C@@H](NC(=O)[C@H](CCCCN)NC(=O)[C@H](Cc1ccccc1)NC(=O)[C@H](CC(N)=O)NC(=O)[C@@H](NC(=O)[C@H](C)N)[C@@H](C)CC)[C@@H](C)CC)C(=O)O [3102.0489] (H-AINFKIFNI-OH) | 22 nM |  |
| CC[C@H](C)[C@H](NC(=O)[C@@H](NC(=O)[C@@H](N)CCCCN)[C@@H](C)O)C(=O)N[C@@H](Cc1ccc(O)cc1)C(=O)N[C@@H](CC(C)C)C(=O)N[C@@H](CC(C)C)C(=O)N[C@@H](CO)C(=O)N[C@@H](CC(C)C)C(=O)N[C@@H](Cc1ccccc1)C(=O)O [3102.0490] (H-KTIYLLSLF-OH) | 10 nM |  |
| CC[C@H](C)[C@H](NC(=O)[C@H](CC(C)C)NC(=O)[C@H](CC(C)C)NC(=O)[C@H](Cc1ccccc1)NC(=O)[C@H](Cc1c[nH]cn1)NC(=O)[C@H](C)NC(=O)[C@H](CO)NC(=O)[C@@H](N)CCCCN)C(=O)N[C@@H](Cc1ccccc1)C(=O)O [3102.0491] (H-KSAHFLLIF-OH) | 0.19 nM |  |
| CC[C@H](C)[C@H](NC(=O)[C@H](CO)NC(=O)[C@@H](NC(=O)CNC(=O)[C@H](Cc1ccccc1)NC(=O)[C@H](CO)NC(=O)[C@H](CC(N)=O)NC(=O)[C@H](CC(C)C)NC(=O)[C@@H](N)CCCCN)C(C)C)C(=O)O [3102.0496] (H-KLNSFGVSI-OH) | 0.55 nM |  |
| CC[C@H](C)[C@H](NC(=O)[C@H](CCSC)NC(=O)[C@@H](NC(=O)[C@H](CO)NC(=O)[C@H](CO)NC(=O)[C@H](Cc1ccc(O)cc1)NC(=O)[C@H](CO)NC(=O)[C@H](CCSC)NC(=O)[C@@H](N)CCCCN)C(C)C)C(=O)O [3102.0497] (H-KMSYSSVMI-OH) | 14 nM |  |
| CSCC[C@H](NC(=O)[C@@H](N)Cc1c[nH]cn1)C(=O)N[C@@H](CC(C)C)C(=O)N[C@@H](CCC(=O)O)C(=O)N[C@@H](Cc1ccccc1)C(=O)N[C@@H](CC(C)C)C(=O)N[C@@H](Cc1ccc(O)cc1)C(=O)N[C@@H](CO)C(=O)N[C@@H](Cc1ccccc1)C(=O)O [3102.0499] (H-HMLEFLYSF-OH) | 0.3 nM |  |
| CC[C@H](C)[C@H](NC(=O)[C@@H](NC(=O)[C@H](Cc1ccc(O)cc1)NC(=O)[C@H](CC(C)C)NC(=O)[C@@H](N)CCCCN)[C@@H](C)O)C(=O)N[C@H](C(=O)N[C@@H](CO)C(=O)N[C@H](C(=O)N[C@@H](CC(C)C)C(=O)O)[C@@H](C)O)C(C)C [3102.0508] (H-KLYTIVSTL-OH) | 7.1 nM |  |
| CC[C@H](C)[C@H](NC(=O)[C@H](C)NC(=O)[C@H](CCC(N)=O)NC(=O)[C@H](Cc1ccccc1)NC(=O)[C@H](C)NC(=O)[C@H](Cc1ccccc1)NC(=O)[C@H](CO)NC(=O)[C@@H](NC(=O)[C@@H](N)CCCNC(=N)N)[C@@H](C)O)C(=O)O [3102.0512] (H-RTSFAFQAI-OH) | 3.8 nM |  |
| CC(C)C[C@H](N)C(=O)N[C@H](C(=O)NCC(=O)N[C@H](C(=O)N[C@@H](Cc1ccccc1)C(=O)N[C@H](C(=O)N[C@H](C(=O)N[C@@H](C)C(=O)N[C@@H](Cc1ccccc1)C(=O)O)[C@@H](C)O)C(C)C)[C@@H](C)O)[C@@H](C)O [3102.0515] (H-LTGTFVTAF-OH) | 8.8 nM |  |
| CSCC[C@H](NC(=O)[C@@H](N)C(C)C)C(=O)N[C@@H](Cc1ccc(O)cc1)C(=O)N[C@@H](C)C(=O)N[C@@H](Cc1ccccc1)C(=O)N[C@H](C(=O)N[C@H](C(=O)N1CCC[C@H]1C(=O)N[C@@H](CC(C)C)C(=O)O)[C@@H](C)O)[C@@H](C)O [3102.0516] (H-VMYAFTTPL-OH) | 0.29 nM |  |
| CC[C@H](C)[C@H](NC(=O)[C@H](CC(N)=O)NC(=O)[C@H](CCSC)NC(=O)[C@@H](NC(=O)[C@@H](N)CCSC)[C@@H](C)O)C(=O)N[C@H](C(=O)N[C@@H](CC(N)=O)C(=O)N[C@@H](Cc1ccccc1)C(=O)N[C@@H](Cc1ccccc1)C(=O)O)C(C)C [3102.0518] (H-MTMNIVNFF-OH) | 1.9 nM |  |
| CC(C)[C@H](NC(=O)[C@H](Cc1ccc(O)cc1)NC(=O)[C@@H](NC(=O)[C@@H](N)CCCNC(=N)N)C(C)C)C(=O)NCC(=O)N[C@@H](CC(N)=O)C(=O)N[C@H](C(=O)N[C@@H](C)C(=O)N[C@@H](Cc1c[nH]c2ccccc12)C(=O)O)C(C)C [3102.0520] (H-RVYVGNVAW-OH) | 1.1 nM |  |
| CC[C@H](C)[C@H](NC(=O)[C@H](CCCCN)NC(=O)[C@H](CC(C)C)NC(=O)[C@@H](NC(=O)[C@H](Cc1ccc(O)cc1)NC(=O)[C@H](CC(N)=O)NC(=O)[C@H](CC(N)=O)NC(=O)[C@H](CC(C)C)NC(=O)[C@@H](N)CC(C)C)[C@@H](C)O)C(=O)O [3102.0521] (H-LLNNYTLKI-OH) | 25 nM |  |
| CC[C@H](C)[C@H](NC(=O)[C@H](CCCCN)NC(=O)[C@H](Cc1ccc(O)cc1)NC(=O)[C@H](Cc1ccccc1)NC(=O)[C@H](CCSC)NC(=O)[C@H](Cc1ccc(O)cc1)NC(=O)[C@H](CCC(N)=O)NC(=O)[C@@H](N)CCCNC(=N)N)C(=O)N[C@@H](Cc1ccccc1)C(=O)O [3102.1055] (H-RQYMFYKIF-OH) | 19 nM | 0.07 nM |
| CC[C@H](C)[C@H](NC(=O)[C@H](C)NC(=O)[C@H](Cc1ccccc1)NC(=O)[C@H](CCC(N)=O)NC(=O)[C@@H](N)Cc1c[nH]c2ccccc12)C(=O)N[C@@H](Cc1c[nH]cn1)C(=O)N[C@@H](Cc1ccc(O)cc1)C(=O)N[C@@H](CO)C(=O)N[C@@H](Cc1ccccc1)C(=O)O [3102.1096] (H-WQFAIHYSF-OH) | 2.8 nM | 4.5 nM |
| CC[C@H](C)[C@H](N)C(=O)N[C@@H](CC(C)C)C(=O)N[C@@H](Cc1ccccc1)C(=O)N[C@@H](Cc1ccc(O)cc1)C(=O)N[C@@H](Cc1ccccc1)C(=O)N[C@@H](C)C(=O)N[C@@H](CC(N)=O)C(=O)NCC(=O)N[C@H](C(=O)O)[C@@H](C)CC [3102.1147] (H-ILFYFANGI-OH) | 93 nM |  |
| CC[C@H](C)[C@H](N)C(=O)N[C@@H](CCSC)C(=O)N[C@@H](Cc1ccccc1)C(=O)N[C@@H](C)C(=O)N[C@@H](CCCCN)C(=O)N[C@H](C(=O)N[C@@H](CC(C)C)C(=O)N[C@@H](CC(=O)O)C(=O)N[C@@H](Cc1ccccc1)C(=O)O)[C@@H](C)O [3102.1190] (H-IMFAKTLDF-OH) | 6.8 nM | 0.31 nM |
| CC[C@H](C)[C@H](NC(=O)[C@H](Cc1ccc(O)cc1)NC(=O)[C@H](Cc1c[nH]c2ccccc12)NC(=O)[C@H](CCSC)NC(=O)[C@@H](N)CO)C(=O)N1CCC[C@H]1C(=O)N[C@@H](CC(N)=O)C(=O)N[C@H](C(=O)N[C@@H](Cc1ccccc1)C(=O)O)C(C)C [3102.1192] (H-SMWYIPNVF-OH) | 5.1 nM | 0.72 nM |
| CC[C@H](C)[C@H](N)C(=O)N[C@@H](CCSC)C(=O)N[C@@H](Cc1ccccc1)C(=O)N[C@@H](CO)C(=O)N[C@@H](CCCCN)C(=O)N[C@@H](CO)C(=O)N[C@@H](CC(C)C)C(=O)N[C@@H](CC(N)=O)C(=O)N[C@@H](Cc1ccccc1)C(=O)O [3102.1204] (H-IMFSKSLNF-OH) | 15 nM | 0.23 nM |
